From patent US6608086B2, “Dihydropyridines and new uses thereof” (Synaptic Pharmaceutical Corporation, priority 1993, dated 2003) come the findings set out here.

In general, melting point refers to the temperature of the solid-liquid transition.

One series deals with T1, L-type calcium channel (Rattus norvegicus, UniProt P22002).
T1 construct: membrane fragments of rat cardiac muscle; from tissue; host or cells: rat cardiac muscle membranes
Put plainly: Competition binding of [3H]nitrendipine to membrane fragments of rat cardiac muscle.

Series [1] has as its target T2, α1C Human Adrenergic Receptor (Homo sapiens, UniProt P35348).
T2 construct: The entire coding region of α1C (1401 bp); expressed in transfected cells
T2 sequence (P35348 1-466): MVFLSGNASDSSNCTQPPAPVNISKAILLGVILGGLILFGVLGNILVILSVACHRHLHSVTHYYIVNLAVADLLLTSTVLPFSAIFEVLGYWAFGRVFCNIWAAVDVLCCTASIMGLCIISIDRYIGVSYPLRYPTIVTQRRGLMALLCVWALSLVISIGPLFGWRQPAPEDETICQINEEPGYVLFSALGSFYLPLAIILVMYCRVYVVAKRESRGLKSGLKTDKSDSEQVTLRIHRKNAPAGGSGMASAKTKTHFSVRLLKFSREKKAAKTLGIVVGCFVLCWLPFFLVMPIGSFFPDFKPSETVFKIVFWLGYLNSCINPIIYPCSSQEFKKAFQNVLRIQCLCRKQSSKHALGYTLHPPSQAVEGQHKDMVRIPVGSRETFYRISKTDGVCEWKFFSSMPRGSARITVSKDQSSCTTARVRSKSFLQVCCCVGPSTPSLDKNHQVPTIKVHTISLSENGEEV
Put plainly: Radioligand binding, [3H]prazosin, cloned human α1C adrenergic receptor. Summed up: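 Antagonist radioligand [3H]prazosin at 0.5 nM labels human α1C receptors in stably transfected LM(tk−) cell membranes over 20 min at 37° C. Phentolamine (10 μM) gives nonspecific binding.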

Series [2] has as its target T3, α1A Human Adrenergic Receptor (Homo sapiens, UniProt P25100).
T3 construct: The entire coding region of α1A (1719 bp); expressed in transfected cells
T3 sequence (P25100 1-572): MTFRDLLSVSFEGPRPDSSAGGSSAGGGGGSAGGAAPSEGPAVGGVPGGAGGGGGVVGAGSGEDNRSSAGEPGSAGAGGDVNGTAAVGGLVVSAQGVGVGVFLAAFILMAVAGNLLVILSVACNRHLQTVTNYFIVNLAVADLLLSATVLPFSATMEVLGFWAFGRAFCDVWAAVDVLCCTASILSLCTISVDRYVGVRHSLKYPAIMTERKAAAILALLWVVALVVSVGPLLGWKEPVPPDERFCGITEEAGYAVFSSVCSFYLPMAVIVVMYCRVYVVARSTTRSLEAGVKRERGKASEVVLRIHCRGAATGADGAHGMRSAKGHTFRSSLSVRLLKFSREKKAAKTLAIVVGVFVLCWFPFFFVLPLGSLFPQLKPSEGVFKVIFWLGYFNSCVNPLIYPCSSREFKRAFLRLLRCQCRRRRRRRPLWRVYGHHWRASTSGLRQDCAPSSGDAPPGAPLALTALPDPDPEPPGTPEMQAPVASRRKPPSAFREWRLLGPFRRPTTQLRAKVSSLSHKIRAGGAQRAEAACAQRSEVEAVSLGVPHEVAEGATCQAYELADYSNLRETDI
Put plainly: Radioligand binding, [3H]prazosin, cloned human α1A adrenergic receptor. Summed up:
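In pH 7.5 Tris/MgCl2/ascorbic acid buffer, α1A-expressing LM(tk−) membranes are exposed to 0.5 nM [3H]prazosin (37° C, 20 min). Excess phentolamine (10 μM) marks nonspecific binding before rapid filtration.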

Setting [3] is: cloned human α1C receptor, LM(tk-) cell membranes, read-out: PKi alpha-1 1c (converted).
Where [4] appears, read: [3H]nitrendipine, rat cardiac muscle membranes, SEM and n in lines below, read-out: pKi Ca (converted).
[5] abbreviates: cloned human receptor in LM(tk-) cell membranes, SEM and n in lines below, read-out: pKi alpha-1 1c (converted).
Setting [6] is: [3H]prazosin, cloned human receptor in LM(tk-) cell membranes, SEM and n in lines below, read-out: pKi alpha-1 1a (converted).
[7] abbreviates: cloned human receptor, LM(tk-) cell membranes, mean, read-out: PKi alpha-1 1c (converted).

Where two headings read alike, the source gives them in different places.

T1 sequence (P22002 whole entry, other chains not shown, the tested form may be a part): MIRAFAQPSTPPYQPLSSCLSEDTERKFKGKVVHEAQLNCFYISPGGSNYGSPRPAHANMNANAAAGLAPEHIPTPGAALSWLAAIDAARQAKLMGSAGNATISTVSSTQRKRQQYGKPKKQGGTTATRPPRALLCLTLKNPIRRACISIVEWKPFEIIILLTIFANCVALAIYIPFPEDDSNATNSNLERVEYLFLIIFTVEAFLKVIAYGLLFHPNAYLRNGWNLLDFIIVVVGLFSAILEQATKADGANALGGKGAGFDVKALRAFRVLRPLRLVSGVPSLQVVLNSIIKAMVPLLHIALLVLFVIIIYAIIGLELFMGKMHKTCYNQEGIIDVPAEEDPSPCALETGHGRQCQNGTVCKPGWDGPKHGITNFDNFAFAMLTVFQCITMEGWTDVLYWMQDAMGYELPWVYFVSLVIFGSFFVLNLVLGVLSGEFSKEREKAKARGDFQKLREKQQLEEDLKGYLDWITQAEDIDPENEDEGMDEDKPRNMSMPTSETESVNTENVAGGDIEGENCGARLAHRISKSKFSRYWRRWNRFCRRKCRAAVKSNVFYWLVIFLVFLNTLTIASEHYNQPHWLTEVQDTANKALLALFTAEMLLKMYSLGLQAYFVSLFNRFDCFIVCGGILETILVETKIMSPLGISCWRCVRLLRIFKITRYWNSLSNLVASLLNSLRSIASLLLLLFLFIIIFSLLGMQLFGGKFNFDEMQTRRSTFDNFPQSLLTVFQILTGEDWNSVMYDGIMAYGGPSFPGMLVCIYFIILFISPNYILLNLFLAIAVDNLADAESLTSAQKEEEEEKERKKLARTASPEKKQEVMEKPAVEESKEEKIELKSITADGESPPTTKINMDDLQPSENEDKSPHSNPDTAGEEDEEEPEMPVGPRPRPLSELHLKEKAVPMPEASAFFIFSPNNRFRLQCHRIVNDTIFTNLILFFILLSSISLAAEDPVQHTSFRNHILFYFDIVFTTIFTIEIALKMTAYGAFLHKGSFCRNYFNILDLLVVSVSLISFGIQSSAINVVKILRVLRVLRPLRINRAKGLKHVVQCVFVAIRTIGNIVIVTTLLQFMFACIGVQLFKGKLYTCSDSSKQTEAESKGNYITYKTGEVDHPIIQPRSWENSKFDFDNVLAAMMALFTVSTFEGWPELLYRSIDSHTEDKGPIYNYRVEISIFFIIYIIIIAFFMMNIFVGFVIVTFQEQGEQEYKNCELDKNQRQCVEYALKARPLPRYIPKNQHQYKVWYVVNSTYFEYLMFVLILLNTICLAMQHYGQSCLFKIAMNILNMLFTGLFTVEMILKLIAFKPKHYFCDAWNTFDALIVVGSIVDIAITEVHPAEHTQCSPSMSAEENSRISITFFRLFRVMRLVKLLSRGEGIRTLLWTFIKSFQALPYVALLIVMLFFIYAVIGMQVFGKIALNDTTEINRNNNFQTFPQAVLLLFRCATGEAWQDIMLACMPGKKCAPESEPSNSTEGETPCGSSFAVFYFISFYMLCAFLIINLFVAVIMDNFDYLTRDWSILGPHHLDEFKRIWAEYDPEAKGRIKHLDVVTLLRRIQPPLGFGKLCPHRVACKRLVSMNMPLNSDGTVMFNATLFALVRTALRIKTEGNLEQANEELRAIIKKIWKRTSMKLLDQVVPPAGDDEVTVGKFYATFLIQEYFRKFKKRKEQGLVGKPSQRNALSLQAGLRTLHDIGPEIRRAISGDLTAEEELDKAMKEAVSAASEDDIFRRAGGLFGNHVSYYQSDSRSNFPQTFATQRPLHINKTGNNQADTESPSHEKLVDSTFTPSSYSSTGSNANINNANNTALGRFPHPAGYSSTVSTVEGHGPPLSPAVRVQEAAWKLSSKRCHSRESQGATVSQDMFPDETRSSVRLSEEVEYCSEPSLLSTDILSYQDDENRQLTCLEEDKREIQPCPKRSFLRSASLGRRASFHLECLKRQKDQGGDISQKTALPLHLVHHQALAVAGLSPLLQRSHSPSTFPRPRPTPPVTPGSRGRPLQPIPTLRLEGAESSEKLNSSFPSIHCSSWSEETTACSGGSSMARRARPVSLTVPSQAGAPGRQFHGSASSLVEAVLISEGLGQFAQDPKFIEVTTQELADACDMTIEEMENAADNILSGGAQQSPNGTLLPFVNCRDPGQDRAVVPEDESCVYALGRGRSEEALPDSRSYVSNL
T1 sequence (P54290 25-944 partner limits assumed, other chains not shown): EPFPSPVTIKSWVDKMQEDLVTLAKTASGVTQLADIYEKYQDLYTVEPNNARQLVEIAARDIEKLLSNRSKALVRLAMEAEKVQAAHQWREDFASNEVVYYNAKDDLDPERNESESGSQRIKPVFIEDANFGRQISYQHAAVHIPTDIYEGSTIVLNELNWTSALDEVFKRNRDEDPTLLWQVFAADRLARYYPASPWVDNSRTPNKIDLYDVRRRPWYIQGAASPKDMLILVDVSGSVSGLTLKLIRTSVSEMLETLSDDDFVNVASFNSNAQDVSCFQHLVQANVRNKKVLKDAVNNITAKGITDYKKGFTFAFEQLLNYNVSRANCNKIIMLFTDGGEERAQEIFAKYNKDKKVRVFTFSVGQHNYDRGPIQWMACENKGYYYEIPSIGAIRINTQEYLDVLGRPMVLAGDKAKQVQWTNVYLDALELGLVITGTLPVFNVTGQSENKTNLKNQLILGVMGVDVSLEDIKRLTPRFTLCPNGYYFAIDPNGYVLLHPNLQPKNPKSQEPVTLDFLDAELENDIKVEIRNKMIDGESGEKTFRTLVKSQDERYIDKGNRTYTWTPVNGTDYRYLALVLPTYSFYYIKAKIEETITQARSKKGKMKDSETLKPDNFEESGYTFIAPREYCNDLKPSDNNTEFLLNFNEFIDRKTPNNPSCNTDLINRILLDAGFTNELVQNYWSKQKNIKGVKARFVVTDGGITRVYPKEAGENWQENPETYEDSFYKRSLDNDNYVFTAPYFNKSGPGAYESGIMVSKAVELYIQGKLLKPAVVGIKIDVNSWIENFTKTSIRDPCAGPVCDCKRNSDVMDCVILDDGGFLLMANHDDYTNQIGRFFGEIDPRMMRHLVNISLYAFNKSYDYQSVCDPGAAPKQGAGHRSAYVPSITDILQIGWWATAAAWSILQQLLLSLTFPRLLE
T1 sequence (P54290 945-1091 partner limits assumed, other chains not shown): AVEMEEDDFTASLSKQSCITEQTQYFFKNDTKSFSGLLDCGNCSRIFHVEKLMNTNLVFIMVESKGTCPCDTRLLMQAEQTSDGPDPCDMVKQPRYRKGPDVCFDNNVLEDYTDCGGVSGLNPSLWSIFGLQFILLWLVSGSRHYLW

In turn, `COC(=O)C1=C(C)NC(C)=C(C(=O)NCCCN2CCC(c3ccccc3)CC2)C1c1ccc2c(c1)OCO2` (stereo not shown) [Example 250] came in with a melting point of 161 to 165 °C. The Ki at L-type calcium channel ([3H]nitrendipine, rat cardiac muscle membranes, L-type calcium channel, read-out: PKi Ca (converted)) is 13200 nM. Further, the Ki in series [1] (setting [3]) is 1.1 nM. In addition, in series [2] ([3H]prazosin, cloned human α1A receptor, LM(tk-) cell membranes, read-out: PKi alpha-1 1a (converted)), the Ki was 603 nM.
With `CC1=C(C(=O)NCCCN2CCC(c3ccccc3)CC2)C(c2ccc([N+](=O)[O-])cc2)c2c([nH]c(=O)[nH]c2=O)N1` (stereo not shown) [Example 63, 1,4-Dihydro-6-methyl-4-(4-nitrophenyl)-5-{N-[3-(4-phenylpiperidin-1-yl)propyl]}carboxamido-[2,3, d]uracilylpyridine], the melting point fell in the range of 202 to 205 °C. In addition, the Ki on L-type calcium channel (setting [4]) was 66100 nM. In addition, the Ki in series [1] (setting [5]) is 38.9 nM. In addition, the Ki in series [2] (setting [6]) was 44.7 nM.
`CC1=C(C(N)=O)C(c2ccc([N+](=O)[O-])cc2)C(C(=O)NCCCN2CCC(c3ccccc3)CC2)=C(C)N1` (stereo not shown) [Example 60, 5-Carboxamido-1,4-dihydro-2,6-dimethyl-4-(4-nitrophenyl)-3-{N-[3-(4-phenylpiperidin-1-yl)propyl]}carboxamidopyridine] yielded a melting point of 100 to 105 °C. Further, the Ki on L-type calcium channel (setting [4]) was 158000 nM. Besides, the Ki in series [1] (setting [5]) was 2.75 nM. Moreover, the Ki in series [2] (setting [6]) is 200 nM.
The compound `COC(=O)C1=C(C)NC(C)=C(C(=O)NCCCN2CCC(c3ccccc3)(c3ccccc3)CC2)C1c1cccc([N+](=O)[O-])c1` (stereo not shown) [Example 249, 1,4-Dihydro-3-methoxycarbonyl-2,6-dimethyl-4-(3-nitrophenyl)-5-(N-(3-(4,4-diphenylpiperidin-1-yl)propyl)carboxamido)-pyridine] showed a melting point of 192 to 193 °C. Moreover, the Ki at L-type calcium channel (PKi Ca) was 30.9 nM. Besides, in series [1] (setting [3]), the Ki is 0.389 nM. In series [2], the “PKi alpha-1 1a” value stood at 6.37.
`COC(=O)C1(c2ccccc2)CCN(CCCNC(=O)C2=C(CCCCN)NC(C)=C(C(N)=O)C2c2ccc([N+](=O)[O-])cc2)CC1` (stereo not shown) [Example 177, 2-(4-Aminobutyl)-5-carboxamido-1,4-dihydro-3-{N-[3-(4-methoxycarbonyl-4-phenylpiperidin-1-yl)propyl]}carboxamido-6-methyl-4-(4-nitrophenyl)pyridine] displayed a melting point of 81 to 84 °C. Moreover, the Ki on L-type calcium channel (PKi Ca) was 93300 nM. The Ki in series [1] (setting [7]) was 4.68 nM. In addition, the Ki in series [2] (PKi alpha-1 1a) is 1410 nM.
The compound `CC1=C(C(=O)NCCCN2CCC(c3ccccc3)(c3ccccc3)CC2)C(c2ccc([N+](=O)[O-])cc2)C(C(=O)N(C)C)=C(C)N1` (stereo not shown) [Example 39, 1,4-Dihydro-2,6-dimethyl-3-(N,N-dimethyl) carboxamido-4-(4-nitrophenyl)-5-{N-[3-(4,4-diphenylpiperidin-1-yl)propyl]}carboxamidopyridine] registered a melting point of 135 °C. At L-type calcium channel (setting [4]), the Ki is 44700 nM. Moreover, the “pKi alpha-1 1c” value in series [1] (cloned human receptor in LM(tk-) cell membranes, SEM and n in lines below) is on record as 7.23. Further, the “pKi alpha-1 1a” value in series [2] ([3H]prazosin, cloned human receptor in LM(tk-) cell membranes, SEM and n in lines below) is given as 5.77.
Consider `COC(=O)C1=C(C)NC(C)=C(C(=O)NCCCN2CCC(c3ccccc3)CC2)C1c1ccc(Cl)c([N+](=O)[O-])c1` (stereo not shown) [Example 17, 4-(4-Chloro-3-nitrophenyl)-1,4-dihydro-3-methoxycarbonyl-2,6-dimethyl-5-(N-(3-(4-phenylpiperidin-1-yl)propyl)carboxamido)pyridine], for which the melting point lay within 191 to 192 °C. On L-type calcium channel (setting [4]), the Ki is 10000 nM. Further, the Ki in series [1] (setting [5]) was 0.537 nM. The Ki in series [2] (setting [6]) was 126 nM.
Turning to `CCNC(=O)C1=C(CC)NC(COCCN)=C(C(=O)NCCCN2CCC(C(=O)OC)(c3ccccc3)CC2)C1c1ccc([N+](=O)[O-])cc1` (stereo not shown) [Example 233, 2-((2-Aminoethyl)oxy)methyl-6-ethyl-5-N-ethylcarboxamido-1,4-dihydro-3-(N-(3-(4-methoxycarbonyl-4-phenylpiperidin-1-yl)propyl))carboxamido-4-(4-nitro)phenylpyridine], the melting point is 112 °C (dec.). Further, the Ki on L-type calcium channel (PKi Ca) is 257 nM. In series [1] (setting [7]), the Ki was 2.14 nM. In series [2] (PKi alpha-1 1a), this compound had a Ki of 4070 nM.
Compound `CCC1=C(C(N)=O)C(c2ccc([N+](=O)[O-])cc2)C(C(=O)NCCCN2CCC(C(=O)OC)(c3ccccc3)CC2)=C(CCCCN)N1` (stereo not shown) [Example 166, 2-(4-Aminobutyl)-5-carboxamido-6-ethyl-1,4-dihydro-3-{N-[3-(4-methoxycarbonyl-4-phenylpiperidin-1-yl)propyl]}carboxamido-4-(4-nitrophenyl)pyridine] returned a melting point of 75 to 78 °C. Besides, the Ki at L-type calcium channel ([3H]nitrendipine, rat cardiac muscle membranes, mean, read-out: PKi Ca (converted)) was 132000 nM. Also, in series [1] (setting [7]), the Ki is 1.29 nM. For the same compound, the Ki in series [2] ([3H]prazosin, cloned human receptor, LM(tk-) cell membranes, mean, read-out: PKi alpha-1 1a (converted)) is 2340 nM.
For the compound `COC(=O)C1=C(C)NC(C)=C(C(=O)NCCCN2CCC(c3ccccc3)CC2)C1c1cccc([N+](=O)[O-])c1` (stereo not shown) [Example 30, 1,4-Dihydro-3-methoxycarbonyl-2,6-dimethyl-4-(3-nitrophenyl)-5-(N-(3-(4-phenylpiperidin-1-yl)propyl)carboxamido)pyridine], the melting point was in the range of 78 to 80 °C. Also, the Ki on L-type calcium channel (setting [4]) was 95.5 nM. For the same compound, the Ki in series [1] (setting [5]) is 3.02 nM. Further, the Ki in series [2] (setting [6]) was 155 nM.
Compound `CCC1=C(C(N)=O)C(c2ccc([N+](=O)[O-])cc2)C(C(=O)NCCCN2CCC(c3ccccc3)CC2)=C(CC)N1` (stereo not shown) [Example 121, 5-Carboxamido-2,6-diethyl-1,4-dihydro-4-(4-nitrophenyl)-3-{N-[3-(4-phenylpiperidin-1-yl)propyl]}carboxamidopyridine] displayed a melting point of 90 to 101 °C. The Ki on L-type calcium channel ([3H]nitrendipine, rat cardiac muscle membrane fragments, L-type calcium channel, read-out: pKi Ca (converted)) was 16600 nM. In addition, in series [1] (cloned human α1C receptor, LM(tk−) cell membranes, read-out: pKi alpha-1 1c (converted)), the Ki is 1.32 nM. Moreover, the Ki in series [2] ([3H]prazosin, cloned human α1A receptor, LM(tk−) cell membranes, read-out: pKi alpha-1 1a (converted)) was 240 nM.
Take `CCC1=C(C(=O)OC)C(c2ccc([N+](=O)[O-])cc2)C(C(=O)NCCCN2CCC(C(=O)OC)(c3ccccc3)CC2)=C(COCCN)N1` (stereo not shown) [Example 235, 2-((2-Aminoethyl)oxy)methyl-6-ethyl-1,4-dihydro-5-methoxycarbonyl-3-(N-(3-(4-methoxycarbonyl-4-phenylpiperidin-1-yl)propyl))carboxamido-4-(4-nitro)phenylpyridine]: the melting point is 140 °C (dec.). For the same compound, the Ki on L-type calcium channel (PKi Ca) was 166000 nM. Also, the Ki in series [1] (setting [7]) was 2.09 nM. In series [2] (PKi alpha-1 1a), this compound gave a Ki of 282 nM.
For `COC(=O)C1=C(C)NC(CCCCN)=C(C(=O)NCCCN2CCC(c3ccccc3)(c3ccccc3)CC2)C1c1ccc([N+](=O)[O-])cc1` (stereo not shown) [Example 170, 2-(4-Aminobutyl)-1,4-dihydro-5-methoxycarbonyl-6-methyl-4-(4-nitrophenyl)-3-{N-[3-(4,4-diphenylpiperidin-1-yl)propyl]}carboxamidopyridine] the same measures were 89 to 93 °C, 2400 nM, 1.26 nM and 295 nM.
